Data from PMC5793121 (Toxins, 2018).
No end group written: not given here.

What was measured:
[1] = system: mice; conditions: intraperitoneal administration to mice; cited from earlier work
[2] = system: peritoneal macrophages of male ICR mice; format: in vivo, mouse; conditions: 7-day im 0.15 and 0.5 mg/kg
Protocol: (§1) For carrying out these experiments 90 male ICR mice were used, they were divided equally into three groups (30 animals per group) for each study and in these groups they were subdivided into subgroups of 10 mice each and treated as follows: mice of the first subgroup were injected with normal saline im, the second subgroup animals were treated with Az (0.15 mg/kg im) and the animals of the third subgroup were treated with Az (0.50 mg/kg im). The drugs were injected into the quadriceps muscle of the thigh (musculus quadriceps femoris) daily for seven days (1 mL/kg).
On the next day after the seven-day course of the Az administration, the mice of the third group (30 animals) were injected intraperitoneally with 2 mL of ink particles suspension. After 10 min the mice were euthanized (CO2 inhalation) with a subsequent isolation of the peritoneal exudate from their abdominal cavity. In the exudate (1 μL) the total number of peritoneal macrophages and the number of the ink particle-containing (phagocytic) cells among them were counted using a Gorjaev’s chamber.

[3] = system: male ICR mice; format: in vivo, mouse; conditions: 7-day im 0.15 and 0.5 mg/kg
Protocol: as §1
On the last 7th day of the Az administration, the mice of the second group (30 animals) were immunized intraperitoneally with a 1:1 mixture of 200 μL of bovine serum albumin (BSA, 0.5 mg/mL) with a complete Freund’s adjuvant. 10 days after the 1st immunization, the mice received the second 200 μL ip injection of the antigen (BSA, 0.5 mg/mL) in an incomplete Freund’s adjuvant (1:1 ratio).

[4] = system: human muscle-type nAChR adult form α1β1εδ; conditions: Xenopus oocytes; cited from earlier work
[5] = system: male and female ICR mice; format: in vivo, mouse; conditions: 0.15 mg/kg subcutaneously, n = 10
Protocol: Allergenicity of Az was studied in a delayed-type hypersensitivity test on male (20 animals) and female (20 animals) adult ICR mice. The mice were divided into four groups (two control and two experimental groups) of 10 animals (males or females) per group. Mice of the experimental groups were injected subcutaneously at the base of a tail with Az solution (0.15 mg/kg) emulsified in Freund’s complete adjuvant in a ratio of 1:1 (2 mL/kg). Similarly, the mice in the control groups were administered with a suspension of normal saline in Freund’s complete adjuvant. Five days later all animals received an injection of Az (0.15 mg/kg, 1.33 mL/kg) in the pad of the left hind paw. To estimate the intensity of the studied allergic reaction, 6, 12 and 24 h after the second Az injection the thickness of the left and right hind mouse paws was measured with a digital caliper.

[6] = system: human α7 nAChR; conditions: cited from earlier work
[7] = target: T1, mouse muscle type α1β1εδ nAChR (Mus musculus, UniProt P02716+P04756+P20782); assay: Calcium imaging of ACh-evoked [Ca2+]i rise in Neuro2a cells expressing muscle nAChR (Case12 sensor); format: cell-based
T1 construct: expressed in transfected cells; host or cells: mouse neuroblastoma Neuro2a, transient transfection (pRBG4 plasmids), co-expressed with Case12 calcium sensor
T1 sequence (P09690 24-501): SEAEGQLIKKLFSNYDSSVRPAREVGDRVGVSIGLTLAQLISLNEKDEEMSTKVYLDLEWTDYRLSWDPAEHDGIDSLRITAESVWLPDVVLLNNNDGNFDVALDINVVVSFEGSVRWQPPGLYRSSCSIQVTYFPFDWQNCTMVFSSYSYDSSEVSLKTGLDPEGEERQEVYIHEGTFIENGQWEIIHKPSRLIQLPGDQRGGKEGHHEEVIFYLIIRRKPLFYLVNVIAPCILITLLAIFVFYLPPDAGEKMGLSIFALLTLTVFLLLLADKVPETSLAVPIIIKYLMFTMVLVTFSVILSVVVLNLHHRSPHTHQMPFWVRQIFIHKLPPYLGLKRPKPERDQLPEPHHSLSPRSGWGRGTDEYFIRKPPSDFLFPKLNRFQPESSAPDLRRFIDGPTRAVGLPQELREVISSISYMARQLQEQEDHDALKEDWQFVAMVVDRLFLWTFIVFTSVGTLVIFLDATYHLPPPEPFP
T1 sequence (P04756 21-457): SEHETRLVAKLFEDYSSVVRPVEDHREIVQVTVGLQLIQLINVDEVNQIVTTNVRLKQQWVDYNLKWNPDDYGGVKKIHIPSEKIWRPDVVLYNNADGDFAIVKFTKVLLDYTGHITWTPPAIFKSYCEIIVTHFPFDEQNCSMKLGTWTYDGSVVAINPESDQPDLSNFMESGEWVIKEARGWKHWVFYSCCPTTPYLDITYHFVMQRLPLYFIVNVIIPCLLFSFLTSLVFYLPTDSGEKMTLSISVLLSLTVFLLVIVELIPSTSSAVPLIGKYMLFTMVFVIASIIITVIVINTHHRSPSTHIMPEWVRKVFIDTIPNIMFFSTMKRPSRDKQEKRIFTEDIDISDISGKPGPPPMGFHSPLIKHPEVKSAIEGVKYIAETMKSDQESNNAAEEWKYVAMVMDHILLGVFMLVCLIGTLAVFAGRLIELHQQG
T1 sequence (P02716 25-520): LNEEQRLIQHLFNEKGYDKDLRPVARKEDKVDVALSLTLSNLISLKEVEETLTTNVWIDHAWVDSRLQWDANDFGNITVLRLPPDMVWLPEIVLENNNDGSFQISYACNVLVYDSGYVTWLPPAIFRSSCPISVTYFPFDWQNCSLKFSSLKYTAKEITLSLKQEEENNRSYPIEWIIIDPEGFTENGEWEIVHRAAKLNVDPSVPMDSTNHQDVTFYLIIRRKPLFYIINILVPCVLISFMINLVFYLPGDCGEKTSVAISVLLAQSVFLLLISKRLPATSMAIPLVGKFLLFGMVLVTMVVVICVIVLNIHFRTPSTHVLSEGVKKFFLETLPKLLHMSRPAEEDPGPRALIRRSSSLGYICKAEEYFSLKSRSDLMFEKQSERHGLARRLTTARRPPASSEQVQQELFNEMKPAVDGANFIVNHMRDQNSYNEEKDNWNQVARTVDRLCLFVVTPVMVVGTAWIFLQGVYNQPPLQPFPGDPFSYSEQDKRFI
T1 sequence (P20782 21-493): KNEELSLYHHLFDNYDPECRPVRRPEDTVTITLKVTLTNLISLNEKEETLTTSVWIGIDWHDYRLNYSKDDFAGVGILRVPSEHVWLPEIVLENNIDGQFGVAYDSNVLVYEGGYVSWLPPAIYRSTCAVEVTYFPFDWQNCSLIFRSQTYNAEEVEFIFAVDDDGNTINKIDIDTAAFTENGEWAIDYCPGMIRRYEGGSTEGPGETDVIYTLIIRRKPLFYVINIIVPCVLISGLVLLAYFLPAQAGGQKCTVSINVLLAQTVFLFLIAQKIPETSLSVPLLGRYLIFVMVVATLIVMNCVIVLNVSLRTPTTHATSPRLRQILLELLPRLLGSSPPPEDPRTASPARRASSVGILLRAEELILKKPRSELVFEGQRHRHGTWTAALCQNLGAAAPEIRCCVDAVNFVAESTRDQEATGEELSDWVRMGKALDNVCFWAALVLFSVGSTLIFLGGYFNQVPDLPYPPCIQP
Protocol: Mouse neuroblastoma Neuro2a cells were purchased from the Russian collection of cell cultures (Institute of Cytology, Russian Academy of Sciences, Saint Petersburg, Russia). Cells were cultured in DMEM (Paneco, Moscow, Russia) supplemented with 10% FBS. They were sub-cultured the day before transfection and were plated at a density of 10,000 cells per well in a 96-well black plate. On the next day Neuro2a cells were transiently transfected with plasmids coding mouse muscle α1β1δε nAChR (pRBG4-vector) and a fluorescent calcium sensor Case12 (pCase12-cyto vector, Evrogen, Moscow, Russia) in a molar ratio of 2:1 following a lipofectamine transfection protocol (ThermoFisher Scientific, Waltham, MA, USA). Human α7 nAChR (α7 nAChR-pCEP4) was expressed accordingly with a co-expression of the human chaperone Ric-3 (Ric3-pCMV6-XL5, OriGene, Rockville, MD, USA) in a molar ratio 4:1. The transfected cells were grown at 37 °C in a CO2 incubator for 48–72 h, before performing the calcium imaging assay.
Calcium imaging procedure was performed as published earlier. Briefly, after removing the growth medium, the transfected Neuro2a cells and cultivated SH-SY5Y cells were washed with a buffer containing 140 mM NaCl, 2 mM CaCl2, 2.8 mM KCl, 4 mM MgCl2, 20 mM HEPES, 10 mM glucose; pH 7.4. Neuro2a cells expressing muscle nAChR and the protein calcium sensor Case12 were proceeded directly, while SH-SY5Y cells expressing human α3-containing nAChRs natively were loaded with a fluorescent dye Fluo-4, AM (1.824 μM, ThermoFisher Scientific, Waltham, MA, USA) and a water-soluble probenecid (1.25 mM, ThermoFisher Scientific, Waltham, MA, USA) for 30 min at 37 °C and then were kept for 30 min at room temperature according to the manufacturer’s protocol.
To detect the human α7 nAChR-mediated calcium response, transfected Neuro2a cells were incubated with its positive allosteric modulator PNU120596 (10 μM, Tocris Bioscience, Bristol, UK) for 20 min at room temperature before acetylcholine (Sigma-Aldrich Chemie Gmbh, Munich, Germany) addition. To assess mouse muscle or human α3-containing nAChRs this step was skipped. […]
The plates were transferred to the multimodal microplate reader Hidex Sence (Hidex, Turku, Finland) where the cells were excited by light of 485 nm wavelength and emitted fluorescence was detected at 535 ± 10 nm. Fluorescence was recorded every 2 s for three minutes following agonist addition. Responses were measured as peak intensity minus basal fluorescence level and were expressed as a percentage of the maximal response obtained to agonist. Data files were analyzed using Hidex Sence software (Hidex, Turku, Finland) and OriginPro 7.5 software (OriginLab, Northampton, MA, USA, for statistical analysis).

[8] = system: 5-HT3 receptors; conditions: concentration up to 10 μM; cited from earlier work

DNWWPKPPHQGPRPPRPRPKP-NH2 [Az, azemiopsin]
LD50 [1]: 2.57 ± 0.27 mg/kg
phagocytic activity (engulfing ink particles) of peritoneal macrophages [2]: did not significantly change
immune response to BSA (IgG titers in blood serum) [3]: did not demonstrate any significant difference
IC50 [4]: 440 ± 100 nM
allergic effect in the delayed-type hypersensitivity reaction test [5]: no allergic effect
IC50 [6]: 22000 ± 2000 nM
IC50 ([7]; 30 μM ACh (EC100), transfected Neuro2a cells, Case12 sensor, 15 min preincubation, mean ± SEM, 4 independent experiments, read-out: IC50, inhibition of ACh-evoked calcium response of muscle nAChR): 19 ± 8 nM
selectivity to muscle receptor versus α7 nAChR ([7]; ratio of calcium imaging IC50 values α7 / muscle): about 140 times
activity against 5-HT3 receptors [8]: no activity
